# Measurements as given in US7767694B2, “Pharmaceutical composition having prokinetic effect” (N-Gene Research Laboratories Inc., priority 2004, dated 2010).
# Test system: sphincter of Oddi muscle rings
# Experiment: Biliary sphincter of Oddi muscle rings with cholecystokinin octapeptide and BGP-15 (isometric tension, organ bath)
# Settings: BGP-15 20 mg/kg daily for 5 days, CCK-8 5 × 10^−7 M, combination: BGP-15 pretreatment 5 days then CCK-8, average of 6
# Procedure: The sphincter of Oddi was removed from adult male New Zealand white rabbits weighing 3.5-4 kg, and muscle ring of about 3 mm width were prepared. […] The organ bath was maintained at 37° C. and aerated continuously with carbogen (5% of carbon dioxide in oxygen according to European Pharmacopoeia, Edition III). The initial tension was set to 10 mN and the rings were allowed to equilibrate over 1 hour.
# In case of each test type, 6 parallel experiments were carried out, and the average of the results obtained was determined. The following test types were made:
# treatment with cholecystokinin octapeptide to simulate the effect existing in the living organism,
# treatment with organ bath (control group).
# In the treatment with cholecystokinin octapeptide, 5×10^-7 M of the polypeptide was employed.
substance,measurement,setting,value
Cholecystokinin octapeptide [CCK-8],Max. relaxation,control 0,5 mN
same,Max. tonic contraction,control 10,24 mN
same,Frequency of contraction,control 13,19 c/min.
same,Max. contraction,control 16,29 mN
